Source: the supplement of paper PMC13380429

Tests used:
Details in all cases: 72 h
[1] = tested on: U2OS; test: drug sensitivity score (DSS) for viability; higher = more toxic; extreme values may be limits of the assay
[2] = tested on: Calu-3; test: as above
[3] = tested on: HepG2; test: as above
[4] = tested on: Caco-2; test: as above
[5] = tested on: Vero E6; test: as above
[6] = tested on: U2OS; test: cell viability relative to DMSO; higher = less toxic
[7] = tested on: Calu-3; test: as above
[8] = tested on: HepG2; test: as above
[9] = tested on: Caco-2; test: as above
[10] = tested on: Vero E6; test: as above
[11] = tested on: U2OS; test: relative viability EC50 (midpoint between 100% and the lowest measured viability); higher = less toxic
[12] = tested on: Calu-3; test: as above
[13] = tested on: HepG2; test: as above
[14] = tested on: Caco-2; test: as above
[15] = tested on: Vero E6; test: as above

SMILES	drug sensitivity score [1]	drug sensitivity score [2]	drug sensitivity score [3]	drug sensitivity score [4]	drug sensitivity score [5]	cell viability ([6]; 1 nM) [%]	cell viability ([6]; 10 nM) [%]	cell viability ([6]; 100 nM) [%]	cell viability ([6]; 1000 nM) [%]	cell viability ([6]; 10000 nM) [%]	cell viability ([7]; 1 nM) [%]	cell viability ([7]; 10 nM) [%]	cell viability ([7]; 100 nM) [%]	cell viability ([7]; 1000 nM) [%]	cell viability ([7]; 10000 nM) [%]	cell viability ([8]; 1 nM) [%]	cell viability ([8]; 10 nM) [%]	cell viability ([8]; 100 nM) [%]	cell viability ([8]; 1000 nM) [%]	cell viability ([8]; 10000 nM) [%]	cell viability ([9]; 1 nM) [%]	cell viability ([9]; 10 nM) [%]	cell viability ([9]; 100 nM) [%]	cell viability ([9]; 1000 nM) [%]	cell viability ([9]; 10000 nM) [%]	cell viability ([10]; 1 nM) [%]	cell viability ([10]; 10 nM) [%]	cell viability ([10]; 100 nM) [%]	cell viability ([10]; 1000 nM) [%]	cell viability ([10]; 10000 nM) [%]	relative viability EC50 [11] [µM]	relative viability EC50 [12] [µM]	relative viability EC50 [13] [µM]	relative viability EC50 [14] [µM]	relative viability EC50 [15] [µM]
Brc1ccc(NC2C3CC4CC(C3)CC2C4)cc1 (stereo not given) [bromantan]	0	0	0	0	0	102	99.6	101	96.9	101	89.6	90.6	98.3	102	87.9	105	100	92	106	94.3	104	95.9	104	99.9	92.8	101	100	99.5	108	98.8	> 10	> 10	> 10	> 10	> 10
CC(C)(C)NCC(O)c1cc(Br)no1 (stereo not given) [broxaterol]	0	0	0	0	0	104	99.1	97.6	102	99.4	111	95.4	108	111	95.9	105	96.9	92.5	94.8	97.2	103	99.2	93	96.2	104	105	101	103	98.8	99.4	> 10	> 10	> 10	> 10	> 10
CC(C)NCC(O)COc1cccc2[nH]c3ccccc3c12 (stereo not given) [carazolol]	0	0	0	0	0	103	96.3	102	97.8	99.7	102	101	90.9	95.7	106	85.6	99	98.6	101	104	97.4	89.7	104	98.1	105	98	99.1	90.1	100	99.3	> 10	> 10	> 10	> 10	> 10
COCC1=C(C(=O)O)N2C(=O)[C@@H](NC(=O)/C(=N\OC)c3csc(N)n3)[C@H]2SC1 [cefpodoxime]	0	0	0	0	0	104	99.6	105	102	101	98	105	96.8	99.4	103	106	103	108	101	96.1	106	112	97.5	91.4	105	99.7	98.1	99.2	97.5	99.4	> 10	> 10	> 10	> 10	> 10
CCN(CC)C(=O)Nc1ccc(OCC(O)CNC(C)(C)C)c(C(C)=O)c1 (stereo not given) [celiprolol]	0	0	0	0	0	101	100	96.5	95.9	95.3	104	104	106	98.7	96.4	99.6	98.9	106	88.1	103	95.4	106	112	103	106	103	104	102	106	97.3	> 10	> 10	> 10	> 10	> 10
CC1=C(C(=O)O)N2C(=O)[C@@H](NC(=O)[C@H](N)c3ccccc3)[C@H]2SC1 [cephalexin]	0	0	0	0	0	99.2	91.5	99.1	94.7	104	94.8	101	88.4	112	94.9	101	97.1	92.7	95.2	105	95.2	94.6	100	98	115	95.8	100	96.7	101	103	> 10	> 10	> 10	> 10	> 10
Oc1ccc(Cl)c2c1CCC2 [chlorindanol]	0	0	0.3	0	0	101	98.8	97.1	107	98.9	99.8	118	107	109	96.9	110	89.5	97.9	95.2	84.1	115	93.9	84.6	105	99.5	99.5	100	103	96.4	103	> 10	> 10	> 10	> 10	> 10
CN(C)CC/C=C1/c2ccccc2Sc2ccc(Cl)cc21 [chlorprothixene]	0	0.1	0.6	0	0	104	101	102	99.7	100	103	101	106	106	84.8	99.6	103	103	98.4	82.9	122	99.5	96.2	90.5	100	103	110	103	106	89.2	> 10	> 10	> 10	> 10	> 10
N[C@]1(C(=O)O)CC[C@@H](C(=O)O)C1 [cis-ACPD]	0	0	0	0	0	98.7	94.1	98.1	101	97.9	95.3	101	108	107	101	105	111	99.5	96.1	103	102	94.7	101	104	94.5	103	99.1	99.4	98.1	102	> 10	> 10	> 10	> 10	> 10
NC1CCN(c2c(F)cc3c(=O)c(C(=O)O)cn(C4CC4)c3c2Cl)C1 (stereo not given) [clinafloxacin]	0	0	0	0	0	95	102	97.5	102	102	95.5	94.4	94.7	97.6	99.5	115	97	108	97.3	109	98.7	100	89.7	106	108	102	97	95	98.7	104	> 10	> 10	> 10	> 10	> 10
COc1cccc2c1C(=O)c1c(O)c3c(c(O)c1C2=O)C[C@@](O)(C(C)=O)C[C@@H]3O[C@H]1C[C@H](N)[C@H](O)[C@H](C)O1 [daunorubicin]	20.7	16.9	25.7	15.8	10.8	96.6	103	80.9	2.4	0.1	99.7	96	69.3	29.4	16.1	108	75.8	43.3	2	0.2	86.3	93.4	74.6	29.8	28	93.7	97.8	87.9	54.3	4.6	0.187	0.177	0.059	0.145	0.963
COc1cc2c(cc1OC)-c1c(C)c3ccc(OC)c(OC)c3c[n+]1CC2 [dehydrocorydaline]	0	0	0	0	0	99.1	101	98.6	100	97.1	96.4	105	91.2	102	100	98.6	99.4	95.1	94.2	95.7	97.6	100	92.5	101	88.8	95.9	100	99.6	94.8	98.5	> 10	> 10	> 10	> 10	> 10
COc1ccc(-c2cc(C(F)F)nn2-c2ccc(S(N)(=O)=O)cc2)cc1F [deracoxib]	0	0	1.5	0	0	91.3	90.2	93.7	88.7	107	100	93.8	104	93.3	109	96.4	112	90.5	89.7	86.5	99.9	93.5	98.1	98.6	102	97.3	99.7	94.2	101	98.8	> 10	> 10	> 10	> 10	> 10
CC(C)(C)C(=O)OCC(=O)[C@H]1CC[C@H]2[C@@H]3CCC4=CC(=O)CC[C@]4(C)[C@H]3CC[C@]12C [desoxycorticosterone-pivalate]	0	0	0	0	0	101	98.1	99.1	99.4	97.9	98.9	90.9	98.6	89.2	101	97	98.8	95.7	89	98.2	104	97	103	99.7	95.3	102	99	101	99.8	101	> 10	> 10	> 10	> 10	> 10
CN(C)CCOC(c1ccccc1)c1ccccc1.Cn1c(=O)c2[nH]c(Cl)nc2n(C)c1=O [dimenhydrinate]	0	0	0	0	0	102	96.5	98	102	106	103	94.4	97.2	99.2	98	95.7	103	110	107	106	96.3	88.1	88.1	104	99.5	93.8	99.7	96.2	100	103	> 10	> 10	> 10	> 10	> 10
O=C(Nc1ccccc1)OCC(CN1CCCCC1)OC(=O)Nc1ccccc1 (stereo not given) [diperodon]	0	0	0	0	0	95.5	93.6	94.5	91.8	94.4	112	122	93.3	104	98.8	100	97.8	96.1	110	103	87.6	89.7	87.6	83	95.5	90.9	95.5	87	96.6	100	> 10	> 10	> 10	> 10	> 10
CC(CCc1ccc(O)cc1)NCCc1ccc(O)c(O)c1 (stereo not given) [dobutamine]	0	0	0	0	0	101	96.6	97.7	102	98	90.2	79.6	92.8	96.9	105	106	110	93.1	96.7	93.3	106	99.2	99.3	95	104	106	103	97.1	98.5	103	> 10	> 10	> 10	> 10	> 10
CCOC(=O)/C=C(C)/C=C/C=C(C)/C=C/c1c(C)cc(OC)c(C)c1C [etretinate]	0	0	0	0	0	96	101	98.1	100	99.5	101	101	97.5	106	109	94.2	99.4	103	102	102	100	107	92.2	111	95.3	97.9	96.6	93	98.5	108	> 10	> 10	> 10	> 10	> 10
CC(C)c1cc(-c2n[nH]c(=O)n2-c2ccc3c(ccn3C)c2)c(O)cc1O [ganetespib]	30.2	19.1	35.3	21.3	19.9	98.4	96.7	3.7	3.4	1.5	91.5	95.9	47.8	35.7	32.5	97.7	56.6	2.3	1.2	1.1	99.9	95.4	37.4	35.2	29.3	101	107	46.3	25.9	29.1	0.0307	0.0478	0.0114	0.0369	0.0685
CO/N=C1\CN(c2nc3c(cc2F)c(=O)c(C(=O)O)cn3C2CC2)CC1CN (stereo not given) [gemifloxacin]	0	0	0.1	0	0	97	102	97.3	100	94.3	99.6	98.5	98.4	98.5	105	105	108	105	100	86.8	92.2	114	105	96.9	95.9	103	102	102	102	95.7	> 10	> 10	> 10	> 10	> 10
Cc1cc2c(C(C)C)c(O)c(O)c(C=O)c2c(O)c1-c1c(C)cc2c(C(C)C)c(O)c(O)c(C=O)c2c1O [gossypol]	5.5	3.2	5.6	7	5	96.8	101	98.6	95.9	11.9	100	100	103	103	36.9	102	96.3	95.3	96.1	9.6	101	104	107	90.9	0.8	100	98.1	97.6	98.6	13.1	2.81	3.4	2.84	2.41	3.05
CC(CNC1CCCCC1)OC(=O)c1ccccc1 (stereo not given) [hexylcaine]	0	0	0	0	0	103	101	99.1	103	104	104	107	95.2	103	95.5	106	102	91	88.5	102	99	88.5	98	105	102	97.3	102	96.8	93.1	105	> 10	> 10	> 10	> 10	> 10
